According to ChEMBL document CHEMBL1158288, “Antiinflammatory activity of coumarins from Santolina oblongifolia” (J Nat Prod, 1996):

What was measured:
[1] = Antiinflammatory activity in NMRI mouse macrophages assessed as inhibition of A23187-induced LTC4 release by Ellman's method; type: functional, cell-based; conditions: macrophage
[2] = Antiinflammatory activity in NMRI mouse macrophages assessed as inhibition of A23187-induced PGE2 release by Ellman's method; type: functional, cell-based; conditions: macrophage
[3] = Antiinflammatory activity in NMRI mouse macrophages assessed as inhibition of A23187-induced PGE2 release at 100 uM by Ellman's method relative to control; type: functional; conditions: Macrophage
[4] = Antiinflammatory activity in NMRI mouse macrophages assessed as inhibition of A23187-induced LTC4 release at 25 uM by Ellman's method relative to control; type: functional; conditions: Macrophage
[5] = Antiinflammatory activity in NMRI mouse macrophages assessed as inhibition of A23187-induced LTC4 release at 100 uM by Ellman's method relative to control; type: functional; conditions: Macrophage

Row | SMILES | IC50 [1] | IC50 [2] | inhibition at 100 µM [3] | inhibition at 25 µM [4] | inhibition at 100 µM [5]
1 | O=c1ccc2cc(O)c(O)cc2o1 [ESCULETIN] | 18 µmol | 11 µmol | 71.7% | 71.2% | –
2 | COc1ccc2ccc(=O)oc2c1 [HERNIARIN] | – | 84 µmol | 65.7% | 2.94% | –
3 | COc1ccc2c(c1)c(CC(=O)O)c(C)n2C(=O)c1ccc(Cl)cc1 [INDOMETHACIN] | – | 22 µmol | 78.1% | – | –
4 | CC(Cc1ccc(O)c(O)c1)C(C)Cc1ccc(O)c(O)c1 (configuration not stated) [NORDIHYDROGUAIARETIC ACID] | 6 µmol | – | – | – | 78.7%

Second part, led by results:

Row | IC50 [1] | IC50 [2] | SMILES | inhibition at 100 µM [3] | inhibition at 25 µM [4] | inhibition at 100 µM [5]
5 | – | 5 µmol | COc1cc2ccc(=O)oc2cc1O [SCOPOLETIN] | 77.4% | 8.8% | –
6 | – | 77 µmol | COc1cc2ccc(=O)oc2cc1O[C@@H]1O[C@H](CO)[C@@H](O)[C@H](O)[C@H]1O [SCOPOLIN] | 75.7% | 55% | –
